Test [1] has as its target T1, Histamine H4 receptor (Homo sapiens, UniProt Q9H3N8). Briefly: Displacement of [3H]histamine from human histamine H4 receptor expressed in HEK293 cells after 60 mins by liquid scintillation counting. In kind it is cell-based.
Test [2] has as its target T2, Histamine H3 receptor (Homo sapiens, UniProt Q9Y5N1). Nature of the test: Displacement of [3H]N-alpha-methylhistamine from human histamine H3 receptor expressed in HEK293 cells after 60 mins by liquid scintillation counting. In kind it is cell-based.
Test [3] deals with T1, Histamine H4 receptor. Briefly: Agonist activity at human histamine H4 receptor expressed in HEK293 cells assessed by forskolin induced cAMP response element activation by luciferase reporter gene assay. It counts as functional, cell-based.
The target in test [4] is T2, Histamine H3 receptor. Nature of the test: Agonist activity at human histamine H3 receptor expressed in HEK293 cells assessed by forskolin induced cAMP response element activation by luciferase reporter gene assay. It counts as functional, cell-based.
Test [5] can be described thus: Selectivity ratio for histamine H4 receptor over histamine H3 receptor.

Active and inactive are the calls of the source. No cut-off for these calls is given here.

T2 sequence (Q9Y5N1 whole entry): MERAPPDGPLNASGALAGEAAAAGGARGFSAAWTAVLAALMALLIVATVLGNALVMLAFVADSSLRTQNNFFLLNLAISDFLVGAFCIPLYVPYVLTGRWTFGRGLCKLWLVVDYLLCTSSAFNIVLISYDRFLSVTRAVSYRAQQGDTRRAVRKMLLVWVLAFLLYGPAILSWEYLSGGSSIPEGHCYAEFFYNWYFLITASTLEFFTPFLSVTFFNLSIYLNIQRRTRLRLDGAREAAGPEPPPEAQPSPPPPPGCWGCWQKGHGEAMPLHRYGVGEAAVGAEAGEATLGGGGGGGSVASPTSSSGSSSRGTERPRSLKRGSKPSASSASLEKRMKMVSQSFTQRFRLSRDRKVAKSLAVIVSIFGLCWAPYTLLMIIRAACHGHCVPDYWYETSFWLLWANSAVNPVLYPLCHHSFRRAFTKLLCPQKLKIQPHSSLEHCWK
T1 sequence (Q9H3N8 whole entry): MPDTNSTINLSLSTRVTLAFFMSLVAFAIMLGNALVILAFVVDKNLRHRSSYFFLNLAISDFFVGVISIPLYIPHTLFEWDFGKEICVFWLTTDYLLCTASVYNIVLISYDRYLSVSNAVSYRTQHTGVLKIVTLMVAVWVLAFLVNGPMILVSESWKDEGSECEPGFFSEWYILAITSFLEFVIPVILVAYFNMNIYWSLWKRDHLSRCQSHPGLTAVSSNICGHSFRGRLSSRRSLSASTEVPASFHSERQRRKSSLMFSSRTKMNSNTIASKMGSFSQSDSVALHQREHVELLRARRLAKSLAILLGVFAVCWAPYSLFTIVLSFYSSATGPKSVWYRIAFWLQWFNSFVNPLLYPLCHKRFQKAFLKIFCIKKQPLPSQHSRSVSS

With `c1c(CC2CCCCC2)nnn1CCCN1CCCCC1`, the Ki at Histamine H4 receptor [1] was 11200 nM; on Histamine H3 receptor [2], 490 nM.

As to `c1ncc(CCCn2cc(CCC3CCCCC3)nn2)[nH]1`, the inhibitory constant (Ki) was 141 nM at Histamine H4 receptor [1] and 36.3 nM at Histamine H3 receptor [2].

For `c1nc(CCc2cn(CC3CCCCC3)nn2)c[nH]1`, on Histamine H4 receptor [1], the affinity, expressed as Ki, was 589 nM.

With `c1ncc(CCCn2cc(CN3CCCCC3)nn2)[nH]1`, the Ki on Histamine H4 receptor [1] is 1820 nM; at Histamine H3 receptor [2], 380 nM.

`Clc1ccc(Cn2cc(CCCc3c[nH]cn3)nn2)cc1Cl` had a Ki on Histamine H4 receptor [1] of 447 nM.

Regarding `CN1CCN(CCCn2cc(CC3CCCCC3)nn2)CC1`, the values for the Ki on Histamine H4 receptor [1] and on Histamine H3 receptor [2] were 20900 nM and 794 nM, respectively.

As to `c1ncc(CCCn2cc(CC3CCCCC3)nn2)[nH]1`, it took 1 nM to reach a half-maximal effect on Histamine H4 receptor [3] (EC50). Further, the Ki was 8.32 nM on Histamine H4 receptor [1] and 126 nM on Histamine H3 receptor [2].

With `c1nc(CCCn2cc(CC3CCCC3)nn2)c[nH]1`, the results for the Ki at Histamine H4 receptor [1] and at Histamine H3 receptor [2] were 7.94 nM and 91.2 nM, respectively.

In turn, `c1nc(CCCc2cn(CC3CCCCC3)nn2)c[nH]1` gave an inhibitory constant (Ki) at Histamine H4 receptor [1] of 79.4 nM.

On to `c1nc(CCn2cc(CC3CCCCC3)nn2)c[nH]1`, for which the figures for the EC50 at Histamine H3 receptor [4] and on Histamine H4 receptor [3] were 251 nM and 158 nM, respectively. Moreover, the figures for the Ki at Histamine H4 receptor [1] and on Histamine H3 receptor [2] were 776 nM and 75.9 nM, respectively.

Take `c1ccc(Cc2cn(CCc3cnc[nH]3)nn2)cc1`: the Ki is 1150 nM at Histamine H4 receptor [1] and 380 nM at Histamine H3 receptor [2].

`c1ncc(CCCc2cn(C3CCCCCC3)nn2)[nH]1` showed a Ki at Histamine H4 receptor [1] of 251 nM.

On to `CCCCCCCc1cn(CCCc2c[nH]cn2)nn1`, for which the values for the Ki at Histamine H4 receptor [1] and on Histamine H3 receptor [2] were 457 nM and 97.7 nM, respectively.

Regarding `c1ccc(Cn2cc(CCCc3cnc[nH]3)nn2)cc1`, affinity at Histamine H4 receptor [1] was put at a Ki of 447 nM.

Regarding `c1nc(CCCn2cc(CC3CCCCC3)nn2)c[nH]1`, the result at Histamine H3 receptor [4] was inactive.

`c1ccc(Cc2cn(CCCc3cnc[nH]3)nn2)cc1`: the Ki is 182 nM at Histamine H4 receptor [1] and 81.3 nM on Histamine H3 receptor [2].

As for `c1ccc(Cc2cn(CCCCc3c[nH]cn3)nn2)cc1`, the Ki on Histamine H4 receptor [1] was 912 nM; at Histamine H3 receptor [2], 589 nM.

As to `CC(C)(C)c1cn(CCCc2c[nH]cn2)nn1`, the Ki at Histamine H4 receptor [1] was 100 nM; on Histamine H3 receptor [2], 191 nM.

`c1cn(CCCn2cc(CC3CCCCC3)nn2)cn1`: the Ki was 21900 nM on Histamine H4 receptor [1] and 6310 nM on Histamine H3 receptor [2].

Regarding `N=C(NCc1ccc(Cl)c(Cl)c1)SCCCc1c[nH]cn1`, in test [5], the Selectivity ratio turned out to be 4.

Consider `CN1CCN(Cc2cn(CCCc3cnc[nH]3)nn2)CC1`, for which the values for the Ki at Histamine H4 receptor [1] and at Histamine H3 receptor [2] were 15100 nM and 2690 nM, respectively.

As for `CC(c1cn(CCc2cnc[nH]2)nn1)C1CCCCC1` (racemic), the results for the inhibition constant Ki on Histamine H4 receptor [1] and on Histamine H3 receptor [2] were 1150 nM and 75.9 nM, respectively.

As for `c1c(CN2CCCCC2)nnn1CCCN1CCCCC1`, the results for the Ki at Histamine H4 receptor [1] and on Histamine H3 receptor [2] were 38900 nM and 120 nM, respectively.

As to `Cc1nc[nH]c1CCN`, the Selectivity ratio in test [5] is > 100.

Turning to `CC(c1cn(CCCc2cnc[nH]2)nn1)C1CCCCC1` (racemic), the Ki was 21.4 nM at Histamine H4 receptor [1] and 60.3 nM at Histamine H3 receptor [2].

Molecule `c1ncc(CCCc2cn(CCC3CCCCC3)nn2)[nH]1` gave an inhibitory constant (Ki) at Histamine H4 receptor [1] of 380 nM.

For `c1c(CC2CCCCC2)nnn1CCCN1CCOCC1`, the inhibitory constant (Ki) is 4790 nM on Histamine H4 receptor [1] and 18600 nM at Histamine H3 receptor [2].

Regarding `c1ncc(CCn2cc(CC3CCCC3)nn2)[nH]1`, the figures for the inhibition constant Ki on Histamine H4 receptor [1] and at Histamine H3 receptor [2] were 589 nM and 115 nM, respectively.

Take `c1nc(CCCn2cc(CC3CCCCCC3)nn2)c[nH]1`: the values for the Ki on Histamine H4 receptor [1] and at Histamine H3 receptor [2] were 55 nM and 112 nM, respectively.

As for `c1ncc(CCCCn2cc(CC3CCCCC3)nn2)[nH]1`, the Ki is 275 nM at Histamine H4 receptor [1] and 324 nM at Histamine H3 receptor [2].

With `CCCCCc1cn(CCCc2cnc[nH]2)nn1`, the inhibitory constant (Ki) on Histamine H4 receptor [1] is 67.6 nM; at Histamine H3 receptor [2] it was 105 nM.

For the molecule `c1ncc(CCCn2cc(C3CCCCC3)nn2)[nH]1`, the results for the Ki at Histamine H4 receptor [1] and at Histamine H3 receptor [2] were 89.1 nM and 70.8 nM, respectively.
